Measured values published in PMC4048319, “Design and Synthesis of High Affinity Inhibitors of Plasmodium falciparum and Plasmodium vivax N-Myristoyltransferases Directed by Ligand Efficiency Dependent Lipophilicity (LELP)” (Journal of Medicinal Chemistry, 2014).

Experiments:
PfNMT [1] = target: T1, PfNMT (Plasmodium falciparum, UniProt Q9U419); experiment: NMT enzyme inhibition, CPM fluorescence assay (PfNMT); format: biochemical; conditions: for Ki: Ki calculated from IC50 by Cheng-Prusoff, mean of two or more determinations, read-out: PfNMT Ki
T1 sequence (Q9U419 1-410): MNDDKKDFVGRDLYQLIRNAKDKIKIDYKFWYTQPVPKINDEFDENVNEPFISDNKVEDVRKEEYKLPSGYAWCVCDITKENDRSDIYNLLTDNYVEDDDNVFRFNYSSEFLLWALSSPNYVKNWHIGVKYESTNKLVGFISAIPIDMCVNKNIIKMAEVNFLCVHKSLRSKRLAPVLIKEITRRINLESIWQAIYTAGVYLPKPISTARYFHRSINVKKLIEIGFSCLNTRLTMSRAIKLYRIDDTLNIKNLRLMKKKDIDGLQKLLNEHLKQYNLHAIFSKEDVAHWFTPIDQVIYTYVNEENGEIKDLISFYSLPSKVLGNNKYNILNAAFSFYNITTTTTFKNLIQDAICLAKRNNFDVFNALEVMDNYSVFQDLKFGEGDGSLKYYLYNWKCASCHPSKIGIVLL
Method: (§1) All IC50 determinations were carried out using a 7-diethylamino-3-(4′-maleimidylphenyl)-4-methylcoumarin (CPM) fluorescence assay, as described previously for HsNMT1,[45] PvNMT,[46] and PfNMT.[21]
(§2) IC50 values are the mean value of two or more determinations, and standard deviation is within 20% of the IC50 unless otherwise specified. Data were elaborated using Microsoft Office Excel 2010, and IC50 values were determined using GraFit 7.0 (Erithacus Software Ltd., U.K.) by nonlinear regression fitting, which were then quoted as Ki as defined below.
(§3) The Michaelis constant (Km) was 3.64 μM and the substrate concentration was 4.00 μM, resulting in a Ki of 0.008 μM. Km values were calculated as described previously.[45]

PfNMT [2] = target: T1, PfNMT; experiment: LELP (cLogP/LE, PfNMT LE)
Aqueous solubility = format: physicochemical; conditions: data not shown
HepG2 cells = experiment: in vitro; format: cell-based
PvNMT = target: T2, PvNMT (Plasmodium vivax, UniProt A5K1A2); experiment: NMT enzyme inhibition, CPM fluorescence assay (PvNMT); format: biochemical; conditions: relative to 34c
T2 sequence (A5K1A2 1-410): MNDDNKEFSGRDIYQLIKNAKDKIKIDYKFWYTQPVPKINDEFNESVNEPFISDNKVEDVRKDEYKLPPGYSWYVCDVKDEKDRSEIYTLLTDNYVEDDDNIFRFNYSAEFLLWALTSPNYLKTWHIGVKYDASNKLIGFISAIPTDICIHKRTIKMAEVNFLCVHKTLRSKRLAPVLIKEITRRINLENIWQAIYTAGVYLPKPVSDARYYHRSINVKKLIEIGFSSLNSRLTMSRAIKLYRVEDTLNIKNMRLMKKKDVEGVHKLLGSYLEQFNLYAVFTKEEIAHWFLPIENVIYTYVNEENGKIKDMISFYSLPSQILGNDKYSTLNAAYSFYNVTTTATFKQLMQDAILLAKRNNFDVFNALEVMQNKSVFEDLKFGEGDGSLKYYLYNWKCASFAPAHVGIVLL
Method: as §1, §2, §3

HsNMT1 = target: T3, HsNMT1 (Homo sapiens, UniProt P30419); experiment: NMT enzyme inhibition, CPM fluorescence assay (HsNMT1); format: biochemical; conditions: ratio of Ki
T3 sequence (P30419 1-496): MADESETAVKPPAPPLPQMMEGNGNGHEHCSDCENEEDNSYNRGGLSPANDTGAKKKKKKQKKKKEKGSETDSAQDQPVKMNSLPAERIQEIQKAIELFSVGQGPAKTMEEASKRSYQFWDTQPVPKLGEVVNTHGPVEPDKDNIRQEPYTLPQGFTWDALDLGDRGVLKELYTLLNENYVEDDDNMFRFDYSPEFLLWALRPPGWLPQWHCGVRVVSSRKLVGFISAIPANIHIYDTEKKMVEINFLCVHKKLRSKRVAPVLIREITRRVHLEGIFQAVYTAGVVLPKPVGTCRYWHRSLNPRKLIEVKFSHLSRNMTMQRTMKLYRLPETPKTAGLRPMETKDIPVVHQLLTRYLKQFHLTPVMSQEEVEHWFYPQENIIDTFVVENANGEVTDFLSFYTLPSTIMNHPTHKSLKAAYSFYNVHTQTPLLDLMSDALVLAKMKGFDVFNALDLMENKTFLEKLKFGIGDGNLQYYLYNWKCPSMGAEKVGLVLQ
Method: as §1, §2, §3

in vitro = format: cell-based; conditions: human
[3] = cLogP determined with ChemAxon
rodent malaria model = tested on: rodent malaria model; set-up: method as in PMID 24451586; conditions: previously shown; cited from earlier work
P. falciparum Dd2 = experiment: Plasmodium falciparum [3H]hypoxanthine incorporation assay (Dd2); format: cell-based; conditions: drug-resistant vs drug-sensitive line
Method: This assay was performed by Dr. Sergio Wittlin and Dr. Christian Scheurer at the Swiss Tropical and Public Health Institute and is a modified version of the original hypoxanthine assay published by Desjardins et al.:[47]
Serial drug dilutions were prepared with a multichannel pipet, transferring 100 μL in a 2-fold serial dilution. Wells of rows A served as controls without drug. An amount of 100 μL of infected blood (parasitemia of 0.3%, 2.5% hematocrit) was added to all wells with a multipipette. The control wells (A9–A12) received uninfected blood of 2.5% hematocrit. The plates were incubated in an incubation chamber at 37 °C in an atmosphere containing 93% N2, 4% CO2, 3% O2. After 48 h, an amount of 50 μL of [^3H]hypoxanthine (=0.5 μCi) solution was added to each well of the plate. The plates were incubated for another 24 h. The plates were then harvested with a Betaplate cell harvester (Wallac, Zurich, Switzerland). The dried filters were inserted into a plastic foil with 10 mL of scintillation fluid and counted in a Betaplate liquid scintillation counter (Wallac, Zurich, Switzerland). The results were recorded as counts per minute (cpm) per well at each drug concentration.
Data were analyzed using a graphic program (e.g., Excel) and expressed as percentage of the untreated controls. The 50% inhibitory concentration (IC50) value was evaluated by logit regression analysis.

PbNMT = PbNMT (Plasmodium berghei, UniProt A0A509ARF4); experiment: PbNMT enzyme affinity; format: biochemical
Method: In addition, 34c was tested against a Plasmodium berghei (Pb) liver stage model to determine whether NMT is likely to be a viable drug target for clearance of liver stage parasites. […] This provides evidence that NMT inhibition is also a promising mechanism for targeting liver stage parasites and may therefore be an effective pathway for the disruption of multiple parasite life stages.

[4] = set-up: method as in PMID 24451586; conditions: previously reported; cited from earlier work

Sequence of PbNMT (A0A509ARF4 entry or part of it): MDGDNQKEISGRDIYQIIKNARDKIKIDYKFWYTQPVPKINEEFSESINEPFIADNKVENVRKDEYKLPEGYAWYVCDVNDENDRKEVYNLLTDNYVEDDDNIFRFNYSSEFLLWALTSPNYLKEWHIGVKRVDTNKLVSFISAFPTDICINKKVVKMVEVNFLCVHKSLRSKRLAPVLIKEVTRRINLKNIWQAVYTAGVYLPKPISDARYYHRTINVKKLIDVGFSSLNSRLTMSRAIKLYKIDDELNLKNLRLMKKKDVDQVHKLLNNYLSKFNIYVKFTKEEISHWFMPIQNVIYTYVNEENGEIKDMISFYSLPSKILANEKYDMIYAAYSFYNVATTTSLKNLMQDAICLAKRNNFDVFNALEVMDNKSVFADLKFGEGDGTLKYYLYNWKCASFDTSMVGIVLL

SMILES | LELP (PfNMT [2]) | also measured
O=C(NCCOc1ccccc1)c1sc2ccccc2c1OC1CCNCC1 [6c] | – | Ki (PfNMT [1]): > 10 µM
c1ccc(Cc2n[nH]c(-c3sc4ccccc4c3OC3CCNCC3)n2)cc1 [compound 18] | 9.5 | –
O=C(NCCCc1ccccc1)c1sc2ccccc2c1OC1CCNCC1 [6b] | – | Ki (PfNMT [1]): > 10 µM
Cc1nn(C)c(C)c1CCc1nnc(-c2sc3ccccc3c2OC2CCNCC2)o1 [35c] | 8.2 | –
O=C1C(O)=C([C@H]2CC[C@H](c3ccc(Cl)cc3)CC2)C(=O)c2ccccc21 [compound 37, atovaquone, reference compound] | – | HepG2 LD50 (HepG2 cells; human, 72 h): >10 000 nM
FC(F)(c1ccccc1)c1nnc(-c2sc3ccccc3c2OC2CCNCC2)o1 [23d] | 13.8 | –
CC(C)(c1ccccc1)c1nnc(-c2sc3ccccc3c2OC2CCNCC2)o1 [23b] | 14.1 | –
Cc1n[nH]c(C)c1Cc1nnc(-c2sc3ccccc3c2OC2CCNCC2)o1 [34a] | 5.6 | lower binding affinity to PvNMT than 34c (PvNMT): ~40 fold
OC(c1ccccc1)c1nnc(-c2sc3ccccc3c2OC2CCNCC2)o1 (stereo not drawn) [23g] | 7.9 | –
O=C(OCCCc1ccccc1)c1sc2ccccc2c1OC1CCNCC1 [4d] | 18.6 | –
O=C(OCCOc1ccccc1)c1sc2ccccc2c1OC1CCNCC1 [4e] | 14.1 | –
Cc1noc(C)c1CCc1nnc(-c2sc3ccccc3c2OC2CCNCC2)o1 [35b] | 7.9 | –
c1ccc(C(c2ccccc2)c2nnc(-c3sc4ccccc4c3OC3CCNCC3)o2)cc1 [23e] | 19.4 | –
CC(c1ccccc1)c1nnc(-c2sc3ccccc3c2OC2CCNCC2)o1 (stereo not drawn) [23a, 2-(1-Phenylethyl)-5-(3-(piperidin-4-yloxy)benzo[b]thiophen-2-yl)-1,3,4-oxadiazole] | 12.5 | –
c1ccc(C2(c3nnc(-c4sc5ccccc5c4OC4CCNCC4)o3)CC2)cc1 [23c] | 12.2 | –
O=C(OCCc1ccccc1)c1sc2ccccc2c1OC1CCNCC1 [4a] | 14.3 | –
Cc1n[nH]c(C)c1CCc1nnc(-c2sc3ccccc3c2OC2CCNCC2)o1 [35a] | 7.8 | –
O=C(NCCc1ccccc1)c1sc2ccccc2c1OC1CCNCC1 [6a] | – | Ki (PfNMT [1]): > 10 µM
c1ccc(Cc2nnc(-c3sc4ccccc4c3OC3CCNCC3)o2)cc1 [20a] | 9.5 | –
Cc1nn(C)c(C)c1Cc1nnc(-c2sc3ccccc3c2OC2CCNCC2)o1 [34c, 2-(3-(Piperidin-4-yloxy)benzo[b]thiophen-2-yl)-5-((1,3,5-trimethyl-1H-pyrazol-4-yl)methyl)-1,3,4-oxadiazole] | 5.5 | EC50 at 72 h (in vitro): 12.3 µM; HepG2 LD50 (HepG2 cells; human, 72 h): 12 300 nM; HepG2 LD50 (approximate) (HepG2 cells; human, 72 h): ~10 µM; selectivity between parasitic and HepG2 cell lines (HepG2 cells; up to): ~40 fold; reduction in lipophilicity relative to 1 [3]: 100 fold; parasitemia in vivo (rodent malaria model): reduce parasitemia in vivo; loss of potency between NF54 and Dd2 (P. falciparum Dd2): less than 4 fold; improvement in enzyme affinity (PfNMT) relative to 1 (PfNMT [1]): 100 fold; Ki (PbNMT): 0.014 µM; selectivity between PfNMT and HsNMT (HsNMT1): 8- to 9 fold; aqueous solubility [4]: > 8 mM
COC(c1ccccc1)c1nnc(-c2sc3ccccc3c2OC2CCNCC2)o1 (stereo not drawn) [23f] | 10.5 | –

The next lines start with results.

LELP (PfNMT [2]) | SMILES | also measured
13.2 | COc1cccc(CCOC(=O)c2sc3ccccc3c2OC2CCNCC2)c1 [4b, 3-Methoxyphenethyl 3-(Piperidin-4-yloxy)benzo[b]thiophene-2-carboxylate] | improvement in enzyme affinity (PfNMT) relative to 1 (PfNMT [1]): 6 fold
12.4 | COc1cc(CCOC(=O)c2sc3ccccc3c2OC2CCNCC2)cc(OC)c1 [4c] | –
12.4 | c1ccc(Cc2noc(-c3sc4ccccc4c3OC3CCNCC3)n2)cc1 [9a, 3-Benzyl-5-(3-(piperidin-4-yloxy)benzo[b]thiophen-2-yl)-1,2,4-oxadiazole] | –
15.3 | Clc1cccc(Cc2noc(-c3sc4ccccc4c3OC3CCNCC3)n2)c1 [9d] | –
11.8 | COc1cc(Cc2noc(-c3sc4ccccc4c3OC3CCNCC3)n2)cc(OC)c1 [9e] | solubility (Aqueous solubility): very low
12.5 | COc1cccc(Cc2noc(-c3sc4ccccc4c3OC3CCNCC3)n2)c1 [9c] | –
11.8 | COc1cc(Cc2nc(-c3sc4ccccc4c3OC3CCNCC3)no2)cc(OC)c1 [14c] | –
15.2 | c1ccc(CCc2noc(-c3sc4ccccc4c3OC3CCNCC3)n2)cc1 [9b, 3-Phenethyl-5-(3-(piperidin-4-yloxy)benzo[b]thiophen-2-yl)-1,2,4-oxadiazole] | –
12.8 | c1ccc(Cc2nc(-c3sc4ccccc4c3OC3CCNCC3)no2)cc1 [14a] | –
9.2 | COc1cccc(Cc2nnc(-c3sc4ccccc4c3OC3CCNCC3)o2)c1 [20b] | –
6.1 | Cc1noc(C)c1Cc1nnc(-c2sc3ccccc3c2OC2CCNCC2)o1 [34b] | selectivity between PfNMT and HsNMT (HsNMT1): 8- to 9 fold
12.4 | COc1cccc(Cc2nc(-c3sc4ccccc4c3OC3CCNCC3)no2)c1 [14b, 5-(3-Methoxybenzyl)-3-(3-(piperidin-4-yloxy)benzo[b]thiophen-2-yl)-1,2,4-oxadiazole] | –
